# PMC2150313 (British Journal of Cancer, 1998)
# Where two headings read alike, the source gives them in different places.
# Legend:
# [1] = Rat pharmacokinetics: plasma 4-OH-IF and chloroacetaldehyde after i.v. IF, with P450 inducer/inhibitor pretreatment
# Source text: British Joumal of Cancer (1998) 77(11), 1768-1776 ? […] Both reactions are catalysed by multiple liver P450 enzymes in vitro in isolated rat liver microsomes. […] The identification of those P450s that contribute specifically to these individual meta- bolic pathways is of particular interest, given the large degree of interindividual differences in the catalytic activities of specific P450s seen in human liver samples (Shimada et al, 1994). […] This complexation, in turn, results in an inhibition of these P450s. Inhibition of P450 2B 1 by non-covalent interaction with the haem ligand metyrapone (MTP) has also been reported (Waxman and Walsh, 1983; Halpert, 1995). […] MTP and other specialty chemi- cals were of the highest grade commercially available and were obtained from Aldrich Chemical (Milwaukee, WI, USA). Animals Male Fischer 344 rats (160-250 g; 7-11 weeks of age) were purchased from Taconic (Germantown, NY, USA). Animals were maintained in individual plastic cages under conditions of constant temperature (22?C), lighting (12-h dark-light cycle) and humidity, and provided with food and water ad libitum, in accordance with the National Institutes of Health Guide for the Care and Use of Laboratory Animals. Rat pharmacokinetics Surgery For kinetic studies, rats were implanted with an indwelling cannula (silicone medical grade/polyethylene tubing) in the right jugular vein to allow blood sampling and drug administration. Surgery was performed under ketamine (Ketaset 95 mg kg-') and xylazine (Rompun 12 mg kg-') anaesthesia 3-4 days before the kinetic experiment. After cannulation, a Rodent Infusion Set obtained from Lomin (Quebec, Canada) was used to withdraw blood samples at appropriate time intervals. Catheters were flushed daily with heparinized saline (20 U ml-') to prevent clotting. […] The sample was then diluted in 0.9% saline to the final required volume and the pH adjusted to pH 4 with 1 M sodium hydroxide. […] At each time point, the rats were given an injection of 0.5 ml of 0.9% saline through the catheter to replace the volume of blood withdrawn. […] Data shown at each pharmacokinetic sampling point are means ? s.d. values. […] Plasma samples (100 gl of supematant) were removed and stored at -80?C until analysis. Plasma proteins were precipitated by successive addition of 40 gl of ice-cold 5.5% (w/v) zinc sulphate, 40 gl of ice-cold saturated barium hydroxide and 20 gl of ice-cold 0.01 M hydrochloric acid. Samples were centrifuged for 15 min at 16 000 g, and 125 gl of the supernatant was added to 67 gl of a solution containing 6 mg of 3-amino- phenol and 6 mg of hydroxylamine hydrochloride dissolved in 1 ml of 1 M hydrochloric acid. Samples were heated at 90?C for 30 min in the dark, then allowed to cool to room temperature and diluted with 408 pl of distilled water before reading the fluores- cence (350 nm excitation and 515 nm emission) on a Shimadzu RF15 spectrofluorophotometer. […] CA present in the plasma samples was derivatized with thiourea to produce 2-aminothiazole, which was assayed by high-performance liquid chromatography (HPLC) after solid- phase extraction by a modification of published methods (Yu and Waxman, 1996). Briefly, a 208-gl aliquot of heparinized blood was immediately mixed with 1 mm formaldehyde to stabilize CA, and then deproteinized with 25.2 pl of ice-cold 70% perchloric acid. After centrifugation (16 000 g for 4 min) at room temperature, 140 pl of the supernatant was added to 21 pl of 100 mM thiourea. […] The derivatized samples were stored at -80?C until analysis (usually within 2 weeks). The 2-aminothia- zole product was isolated using a 100-mg Bond Elut SCX cation- exchange column (Varian), and then eluted, evaporated in vacuo in a Speed Vac and analysed by HPLC on an Alltech Econosphere C18 column with an absorbance detector operating at a wavelength of 254 nm.
# [2] = tested on: rat liver microsomes; set-up: method as in Yu and Waxman, 1996; conditions: ref Yu and Waxman, 1996, cited from earlier work
# [3] = biological target: T1, P450 2B1 (Rattus norvegicus, UniProt P00176); conditions: isolated liver microsomes, vs untreated
# T1 sequence (P00176 1-491): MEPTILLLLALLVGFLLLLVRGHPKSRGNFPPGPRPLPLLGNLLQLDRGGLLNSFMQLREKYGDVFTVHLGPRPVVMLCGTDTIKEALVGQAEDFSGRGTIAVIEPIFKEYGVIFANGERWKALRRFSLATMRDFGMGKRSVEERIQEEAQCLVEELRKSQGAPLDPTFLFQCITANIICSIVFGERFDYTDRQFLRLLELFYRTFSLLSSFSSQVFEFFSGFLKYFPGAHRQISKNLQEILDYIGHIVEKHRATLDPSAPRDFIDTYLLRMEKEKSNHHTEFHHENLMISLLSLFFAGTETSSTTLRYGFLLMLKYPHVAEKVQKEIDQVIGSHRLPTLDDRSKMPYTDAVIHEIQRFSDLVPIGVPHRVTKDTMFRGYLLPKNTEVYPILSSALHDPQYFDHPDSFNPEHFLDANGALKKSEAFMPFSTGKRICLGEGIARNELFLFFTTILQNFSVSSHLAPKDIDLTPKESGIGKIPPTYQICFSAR
# [4] = after IF 100 mg kg-1 i.v., DEX 50 mg kg-1 for 3 days
# [5] = after IF 100 mg kg-1 i.v., PB20 rats given MTP 5 min before IF
smiles,measurement,setting,value
"O=P1(NCCCl)OCCC(O)N1CCCl (stereo not drawn) [4-OH-IF, 4-hydroxy IF]",tmax,[1]; [4],4 min
same,tmax,[1]; [5],4 min
same,tmax (time to reach peak plasma concentration),"[1]; after IF 100 mg kg-1 i.v., untreated (UT) rats",4 to 10 min
"O=P1(NCCCl)OCCCN1CCCl (stereo not drawn) [IF, ifosfamide]","extent of in vitro IF N-dechloroethylation, of total metabolism",[2]; liver microsomes of DEX-treated male rats,24%
same,"extent of in vitro IF N-dechloroethylation, of total metabolism",[2]; liver microsomes of male rats without DEX treatment,47%
"CCC1(c2ccccc2)C(=O)NC(=O)NC1=O [PB, phenobarbital]",induction of androstenedione 16β-hydroxylase activity,[3]; PB20 regimen,fivefold
same,induction of androstenedione 16β-hydroxylase activity,[3]; PB80 regimen,7.5 fold
"O=CCCl [CA, chloroacetaldehyde]",tmax,[1]; [4],10 min
same,tmax,[1]; [5],60 min
same,tmax,"[1]; after IF 100 mg kg-1 i.v., PB-pretreated rats (PB20 and PB80, Figure 1B and C)",4 min
same,Cmax,"[1]; plasma, IF 100 mg kg-1 i.v., PB80+TAO group (TAO 500 mg kg-1 2 h before IF), n=3",172 µM
"Cc1ccccc1C(OCCN(C)C)c1ccccc1 (stereo not drawn) [ORP, orphenadrine, reference compound]",increase in CA half-life,"[1]; male, Fischer 344, rat, in vivo, ip",approximately 30%
